Source: patent publication US10544095B2 (Pfizer Inc., priority 2015, dated 2020)

Biological target: hTDO2 in human glioblastoma A172 cells (Homo sapiens (Human), UniProt P48775)
Assay: Cellular assay for TDO2 activity determination in A172 cells
Assay type: cell-based
Conditions: overnight incubation, kynurenine absorbance at 480 nm
Method: The compounds of formula I inhibit the activity of human TDO2 in cells that constitutively express TDO2, such as A172 cells. A172 is a cell line derived from human brain glioblastoma cells. The cells are available from the American Type Culture Collection (ATCC®) as CRL-1620™.
The assay (adapted from Pilotte L et al., Proc Natl Acad Sci USA, 2012, 109(7), 2497-502) was performed in 96-well flat bottom plates seeded with human glioblastoma A172 cells, naturally expressing hTDO2 (prepared as described in Tilman et al., Mol Cancer, 2007, 17(6), 80), at a concentration of 1.25×10^4 cells/well in a final volume of 200 μL. To determine TDO, the cells were incubated overnight at 37° C. at 5% CO2 in IMDM (Invitrogen) supplemented with 2% FBS and 2% penicillin/streptomycin in the presence of the compounds of the present invention, at different concentrations.
The plates were then centrifuged 5 min at 1000 rpm, and 100 μL of the supernatant were collected in a conical plate, 30 μL of TCA 30% were added and a further centrifuged at 3000×g for 10 minutes. 100 μL of the supernatant were collected in a flat bottomed plate and 100 μL of 2% (w/v) 4-(dimethylamino)-benzaldehyde in acetic acid and incubated for 5 min at room temperature. Kynurenine concentrations were determined by measuring the absorbance at 480 nm. A standard curve was made with pure kynurenine. The TDO activity was measured as described above using ten serial concentrations of the compounds of the present invention. Data were fitted using the Prism™ software (GraphPad Software, Inc.) using standard parameters.

hTDO2 in human glioblastoma A172 cells, sequence (P48775 whole entry): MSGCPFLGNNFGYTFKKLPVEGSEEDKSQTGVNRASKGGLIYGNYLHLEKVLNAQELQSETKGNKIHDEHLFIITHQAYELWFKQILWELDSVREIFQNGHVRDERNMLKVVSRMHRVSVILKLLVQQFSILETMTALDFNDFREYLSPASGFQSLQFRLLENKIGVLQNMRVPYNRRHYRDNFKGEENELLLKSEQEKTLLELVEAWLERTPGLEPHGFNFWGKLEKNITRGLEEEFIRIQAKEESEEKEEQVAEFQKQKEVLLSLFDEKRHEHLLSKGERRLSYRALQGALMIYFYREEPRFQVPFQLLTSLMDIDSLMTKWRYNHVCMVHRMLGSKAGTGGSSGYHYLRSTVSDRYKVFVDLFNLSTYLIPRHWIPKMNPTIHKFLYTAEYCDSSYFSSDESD

SMILES	IC50 [nM]
Cc1ccc(-c2c[nH]c3cc(F)ccc23)cc1S(=O)(=O)NCCN [Example 56, N-(2-aminoethyl)-5-(6-fluoro-1H-indol-3-yl)-2-methylbenzenesulfonamide]	670
CNC(=O)c1cc(-c2c[nH]c3cc(F)ccc23)ccc1S(=O)(=O)N1CCNCC1 [Example 57, 5-(6-fluoro-1H-indol-3-yl)-N-methyl-2-(piperazin-1-ylsulfonyl)-benzamide]	7100
Cc1noc(CCNS(=O)(=O)c2ccc(-c3c[nH]c4cc(F)ccc34)cc2)n1 [Example 59, 4-(6-fluoro-1H-indol-3-yl)-N-(2-(3-methyl-1,2,4-oxadiazol-5-yl)-ethyl)benzenesulfonamide]	360
CNC(=O)n1cc(-c2ccc(S(=O)(=O)N3CCNCC3)cc2)c2ccc(F)cc21 [Example 60, 6-fluoro-N-methyl-3-(4-(piperazin-1-ylsulfonyl)phenyl)-1H-indole-1-carboxamide]	9100
COc1cc(-c2c[nH]c3cc(F)ccc23)cc(S(=O)(=O)NCCN)c1 [Example 61, N-(2-aminoethyl)-3-(6-fluoro-1H-indol-3-yl)-5-methoxybenzene-sulfonamide]	4300
NCCNS(=O)(=O)c1ccc(F)c(-c2c[nH]c3cc(F)ccc23)c1 [Example 62, N-(2-aminoethyl)-4-fluoro-3-(6-fluoro-1H-indol-3-yl)benzene-sulfonamide]	3500
O=S(=O)(N[C@H]1CCOC1)c1ccc(-c2c[nH]c3cc(F)ccc23)cc1 [Example 64, (S)-4-(6-fluoro-1H-indol-3-yl)-N-(tetrahydrofuran-3-yl)-benzenesulfonamide]	270
NCCNS(=O)(=O)c1cc(O)cc(-c2c[nH]c3cc(F)ccc23)c1 [Example 69, N-(2-aminoethyl)-3-(6-fluoro-1H-indol-3-yl)-5-hydroxy-benzenesulfonamide]	330
CC(=O)n1cc(-c2ccc(S(=O)(=O)N3CCNCC3)cc2)c2ccc(F)cc21 [Example 70, 1-(6-fluoro-3-(4-(piperazin-1-ylsulfonyl)phenyl)-1H-indol-1-yl)ethanone]	580
Cc1cc(-c2c[nH]c3cc(F)ccc23)cc(C)c1S(=O)(=O)N1CCNCC1 [Example 71, 3-(3,5-dimethyl-4-(piperazin-1-ylsulfonyl)phenyl)-6-fluoro-1H-indole]	450
O=S(=O)(NCCc1c[nH]nn1)c1ccc(-c2c[nH]c3cc(F)ccc23)cc1 [Example 72, N-(2-(1H-1,2,3-triazol-4-yl)ethyl)-4-(6-fluoro-1H-indol-3-yl)benzenesulfonamide]	300

Molecules with a lower IC50, results first:

IC50 [nM]	SMILES
210	O=S(=O)(N[C@@H]1CCOC1)c1ccc(-c2c[nH]c3cc(F)ccc23)cc1 [Example 55, (R)-4-(6-fluoro-1H-indol-3-yl)-N-(tetrahydrofuran-3-yl)-benzenesulfonamide]
170	O=S(=O)(c1ccc(-c2c[nH]c3cc(F)ccc23)cc1)N1CC(CO)C1 [Example 63, (1-((4-(6-fluoro-1H-indol-3-yl)phenyl)sulfonyl)-azetidin-3-yl)methanol]
160	O=S(=O)(c1ccc(-c2c[nH]c3cc(F)ccc23)cc1)N1CC(O)C1 [Example 65, 1-((4-(6-fluoro-1H-indol-3-yl)phenyl)sulfonyl)azetidin-3-ol]
84	O=S(=O)(c1ccc(-c2c[nH]c3cc(F)ccc23)cc1)N1C[C@H](O)[C@@H](O)C1 [Example 66, (3S,4S) 1-[4-(6-Fluoro-1H-indol-3-yl)-benzenesulfonyl]-pyrrolidine-3,4-diol]
180	NC(=O)C1CN(S(=O)(=O)c2ccc(-c3c[nH]c4cc(F)ccc34)cc2)C1 [Example 67, 1-((4-(6-fluoro-1H-indol-3-yl)phenyl)sulfonyl)azetidine-3-carboxamide]
140	O=S(=O)(NC1CNC1)c1ccc(-c2c[nH]c3cc(F)ccc23)cc1 [Example 68, N-(azetidin-3-yl)-4-(6-fluoro-1H-indol-3-yl)benzenesulfonamide]
